US20120039917A1, “IMMUNO[…]” (priority 2008, published 2012)

System: unstimulated T cells
Assay: HLA-mismatched MLR after transient exposure of unstimulated T cells to PXD
Type: cell-based, human
Details: 10 μM PXD 24 h, washed, then MLR, FACS 8 days later; control MLR 62.6%
Description: Mixed lymphocyte reactions were established using unrelated, HLA-mismatched healthy donor blood samples as donor/recipient pairs. Stimulator PBMC were γ-irradiated with 30 Gy as described previously (Zenhausen et al., 2007). Responder PBMC were washed twice in PBS, 5,6-carboxy-succinimidyl-fluorescein-ester (CSFE)-labelled (1.25 μM, Sigma) at room temperature for 5 minutes, and washed twice in PBS/10% FCS. Two hundred thousand stimulator and responder cells were added per well at a 1:1 ratio in a 96 U-well plate in T cell medium. Stimulator and responder cells were also plated alone, and all cells were cultured in a 5% CO2, 37° C. humidified incubator. Viability, CFSE fluorescence and cell surface antigen expression were determined by flow cytometry. Cells were washed twice in FACS buffer (PBS, 2% FCS), and resuspended in 50 μL/5×10^5 cells and analysed on a Becton Dickinson LSRII FACS analyser using FlowJo (TreeStar) software.
The inventors next determined whether a transient exposure to PXD affected the ability of unstimulated T cells to respond normally to foreign antigen. Unstimulated T cells were incubated with 10 μM PXD for 24 h, washed twice and stimulated by adding HLA-mismatched γ-irradiated stimulator cells.

Oc1ccc(C2=Cc3ccc(O)cc3OC2)cc1 [PXD, Isoflav-3-en-4′,7-diol]
CD3+CFSEloAV− population after transient exposure: 56.2%
